Assay results reported in DBAASP.
Values after ≈ are worked out from the molar mass of the structure shown.

Legend:
Test in all cases: ≥ marks a high value that may be exact or a test limit, other limits are often not marked, values filed in µg/mL are converted to µM
[1] = test system: Candida albicans
[2] = test system: Pseudomonas aeruginosa
[3] = test system: Escherichia coli ATCC 25922
[4] = test system: Staphylococcus aureus ATCC 29213
[5] = test system: Escherichia coli
[6] = test system: Staphylococcus aureus
[7] = test system: Candida albicans ATCC 90029
[8] = test system: Bacillus amyloliquefaciens ATCC 23842
[9] = test system: Bacillus cereus ATCC 14579
[10] = test system: Pseudomonas aeruginosa PAO1
[11] = test system: Bacillus subtilis ATCC 6051
[12] = test system: Bacillus licheniformis ATCC 14580
[13] = test system: Enterococcus faecium 5F-10
[14] = test system: Enterococcus faecalis 1F-1
[15] = test system: Proteus mirabilis ATCC 35659
[16] = test system: Salmonella enterica ATCC H9812
[17] = test system: Klebsiella pneumoniae MTCC 7407
[18] = test system: Klebsiella aerogenes MTCC 111
[19] = test system: Enterococcus faecalis MTCC 439
[20] = test system: Bordetella bronchiseptica MTCC 6837
[21] = test system: Alcaligenes faecalis MTCC 1937
[22] = test system: Staphylococcus aureus MTCC 3160
[23] = test system: Vibrio cholerae MTCC 3904
[24] = test system: Escherichia coli K12 MG1655
[25] = test system: Salmonella enterica MTCC 9844
[26] = test system: Proteus vulgaris MTCC 1771
[27] = test system: Stenotrophomonas maltophilia MTCC 1890
[28] = test system: Proteus mirabilis MTCC 3158
[29] = test system: Acinetobacter baumannii MTCC 9829
[30] = test system: Staphylococcus haemolyticus MTCC 3383
[31] = test system: Citrobacter koseri MTCC 1657
[32] = test system: Pseudomonas aeruginosa MTCC 3542
[33] = test system: Citrobacter freundii MTCC 1658
[34] = test system: Alkalihalobacillus alcalophilus MTCC 860
[35] = test system: Haemophilus influenzae MTCC 621
[36] = test system: Corynebacterium glutamicum MTCC 2679
[37] = test system: Pluralibacter gergoviae MTCC 3826
[38] = test system: Salmonella enterica subsp. enterica serovar Typhimurium ATCC 14028
[39] = test system: Klebsiella oxytoca MTCC 2275
[40] = test system: Shigella flexneri MTCC 1457
[41] = test system: Shigella boydii MTCC 11947
[42] = test system: Staphylococcus aureus ATCC 25923
[43] = test system: Staphylococcus epidermidis
[44] = test system: Escherichia coli UB1005
[45] = test system: Listeria monocytogenes
[46] = test system: Pseudomonas aeruginosa K799
[47] = test system: Salmonella enterica subsp. enterica serovar Typhimurium ATCC 14028s
[48] = test system: Enterococcus faecalis ATCC 29212

| Structure (SMILES) | MIC [1] [µM] | MIC [2] [µM] | MIC [3] [µM] | MIC [4] [µM] | MIC [5] [µM] | MIC [6] [µM] | MIC [7] [µM] | MIC [17] [µM] | MIC [18] [µM] | MIC [19] [µM] | MIC [20] [µM] | MIC [21] [µM] | MIC [22] [µM] | MIC [23] [µM] | MIC [24] [µM] | MIC [25] [µM] | MIC [26] [µM] | MIC [27] [µM] | MIC [28] [µM] | MIC [29] [µM] | other results |
| --- | --- | --- | --- | --- | --- | --- | --- | --- | --- | --- | --- | --- | --- | --- | --- | --- | --- | --- | --- | --- | --- |
| CC(C)C[C@H](NC(=O)[C@H](Cc1cnc[nH]1)NC(=O)[C@H](CC(N)=O)NC(=O)[C@H](Cc1c[nH]c2ccccc12)NC(=O)[C@H](CC(=O)O)NC(=O)[C@@H](N)CCC(=O)O)C(=O)NCC(=O)N[C@@H](C)C(=O)N[C@@H](C)C(=O)N[C@H](C(=O)N[C@@H](Cc1cnc[nH]1)C(=O)N[C@H](C(=O)N[C@@H](CC(C)C)C(=O)N[C@@H](CCCCN)C(=O)N[C@@H](Cc1cnc[nH]1)C(=O)N[C@H](C(=O)N[C@@H](Cc1ccc(O)cc1)C(=O)N[C@@H](CCCCN)C(=O)O)C(C)C)[C@@H](C)O)C(C)C [EDWNHLGAAVHTLKHVYK] |  |  |  |  |  |  |  | ≥ 60.4 | ≥ 60.4 | ≥ 60.4 | ≥ 60.4 | ≥ 60.4 | ≥ 60.4 | ≥ 60.4 | ≥ 60.4 | ≥ 60.4 | ≥ 60.4 | ≥ 60.4 | ≥ 60.4 | ≥ 60.4 | MIC [30]: ≥ 60.4 µM; MIC [31]: ≥ 60.4 µM; MIC [32]: ≥ 60.4 µM; MIC [33]: ≥ 60.4 µM; MIC [34]: ≥ 60.4 µM; MIC [35]: ≥ 60.4 µM; MIC [36]: ≥ 60.4 µM; MIC [37]: ≥ 60.4 µM; MIC [38]: > 60.4 µM; MIC [39]: ≥ 60.4 µM; MIC [40]: ≥ 60.4 µM; MIC [41]: ≥ 60.4 µM |
| CC(C)C[C@H](NC(=O)[C@H](Cc1cnc[nH]1)NC(=O)[C@H](CCCN=C(N)N)NC(=O)[C@H](C)NC(=O)[C@H](CCCN=C(N)N)NC(=O)[C@H](Cc1cnc[nH]1)NC(=O)[C@H](C)NC(=O)[C@@H](NC(=O)[C@H](Cc1cnc[nH]1)NC(=O)[C@H](CCCCN)NC(=O)[C@H](CC(C)C)NC(=O)[C@H](CO)NC(=O)[C@H](C)NC(=O)[C@H](CO)NC(=O)[C@H](CC(C)C)NC(=O)[C@@H](N)CCCCN)C(C)C)C(=O)N[C@@H](CO)C(=O)O [KLSASLKHVAHRARHLS] |  |  |  |  |  |  |  | ≥ 67 | ≥ 67 | ≥ 67 | ≥ 67 | ≥ 67 | ≥ 67 | ≥ 67 | ≥ 67 | ≥ 67 | ≥ 67 | ≥ 67 | ≥ 67 | ≥ 67 | MIC [30]: ≥ 67 µM; MIC [31]: ≥ 67 µM; MIC [32]: ≥ 67 µM; MIC [33]: ≥ 67 µM; MIC [34]: ≥ 67 µM; MIC [35]: ≥ 67 µM; MIC [36]: ≥ 67 µM; MIC [37]: ≥ 67 µM; MIC [38]: > 67 µM; MIC [39]: ≥ 67 µM; MIC [40]: ≥ 67 µM; MIC [41]: ≥ 67 µM |
| CC[C@H](C)[C@H](NC(=O)[C@H](CCCN=C(N)N)NC(=O)[C@H](CS)NC(=O)[C@H](CC(C)C)NC(=O)[C@H](CCCN=C(N)N)NC(=O)[C@@H](N)CCCN=C(N)N)C(=O)N[C@H](C(=O)N[C@H](C(=O)N[C@H](C(=O)N[C@@H](CCCN=C(N)N)C(=O)N[C@H](C(=O)N[C@@H](CS)C(=O)N[C@@H](CCCN=C(N)N)C(=O)N[C@@H](CCCN=C(N)N)C(=O)O)C(C)C)[C@@H](C)CC)C(C)C)C(C)C [RRLCRIVVIRVCRR] |  |  |  |  |  |  |  |  |  |  |  |  |  |  |  |  |  |  |  |  | MIC [42]: > 35.6 µM; MIC [43]: 2.22 µM (≈ 4 µg/mL); MIC [44]: 2.22 µM (≈ 4 µg/mL); MIC [45]: 0.278 µM (≈ 0.5 µg/mL); MIC [46]: 8.9 µM (≈ 16 µg/mL); MIC [47]: 17.8 µM (≈ 32 µg/mL); MIC [48]: 2.22 µM (≈ 4 µg/mL) |
| CC(C)C[C@H](NC(=O)[C@H](Cc1cnc[nH]1)NC(=O)[C@H](CO)NC(=O)[C@H](C)NC(=O)[C@H](CC(C)C)NC(=O)[C@@H](NC(=O)[C@@H](NC(=O)[C@H](CC(C)C)NC(=O)[C@H](CC(C)C)NC(=O)[C@H](CO)NC(=O)[C@H](Cc1cnc[nH]1)NC(=O)[C@H](CO)NC(=O)[C@H](CC(C)C)NC(=O)[C@H](CC(C)C)NC(=O)[C@H](CCCCN)NC(=O)[C@H](Cc1ccccc1)NC(=O)[C@H](CCCN=C(N)N)NC(=O)[C@@H](N)C(C)C)C(C)C)[C@@H](C)O)C(=O)O [VRFKLLSHSLLVTLASHL] | 12.3 (≈ 25 µg/mL) | 3.07 (≈ 6.25 µg/mL) | 3.07 (≈ 6.25 µg/mL) | 6.14 (≈ 12.5 µg/mL) | 6.14 (≈ 12.5 µg/mL) | 3.07 (≈ 6.25 µg/mL) | 12.3 (≈ 25 µg/mL) |  |  |  |  |  |  |  |  |  |  |  |  |  |  |

Further lines, with some results ahead:

| MIC [1] [µM] | MIC [2] [µM] | MIC [3] [µM] | MIC [4] [µM] | MIC [5] [µM] | MIC [6] [µM] | MIC [7] [µM] | Structure (SMILES) | MIC [17] [µM] | MIC [18] [µM] | MIC [19] [µM] | MIC [20] [µM] | MIC [21] [µM] | MIC [22] [µM] | MIC [23] [µM] | MIC [24] [µM] | MIC [25] [µM] | MIC [26] [µM] | MIC [27] [µM] | MIC [28] [µM] | MIC [29] [µM] | other results |
| --- | --- | --- | --- | --- | --- | --- | --- | --- | --- | --- | --- | --- | --- | --- | --- | --- | --- | --- | --- | --- | --- |
| > 69.8 | 8.72 (≈ 12.5 µg/mL) | 2.18 (≈ 3.12 µg/mL) | 4.36 (≈ 6.25 µg/mL) | 4.36 (≈ 6.25 µg/mL) | 4.36 (≈ 6.25 µg/mL) | ≥ 69.8 | CC(C)C[C@H](NC(=O)[C@H](CCCN=C(N)N)NC(=O)[C@H](Cc1cnc[nH]1)NC(=O)[C@H](CCCN=C(N)N)NC(=O)[C@H](CC(C)C)NC(=O)[C@H](CC(C)C)NC(=O)[C@@H](N)CCCCN)C(=O)N[C@@H](CC(C)C)C(=O)N[C@H](C(=O)N[C@H](C(=O)N[C@@H](CC(C)C)C(=O)N[C@@H](C)C(=O)O)[C@@H](C)O)C(C)C [KLLRHRLLVTLA] |  |  |  |  |  |  |  |  |  |  |  |  |  |  |
|  |  | > 154 | > 154 |  |  |  | CC(C)C[C@H](NC(=O)[C@H](CC(C)C)NC(=O)[C@H](CCC(=O)O)NC(=O)[C@H](CC(=O)O)NC(=O)[C@@H](NC(=O)[C@@H](N)CCCN=C(N)N)C(C)C)C(=O)N[C@@H](CO)C(=O)O [RVDELLS] |  |  |  |  |  |  |  |  |  |  |  |  |  | MIC [8]: ≥ 154 µM; MIC [9]: ≥ 154 µM; MIC [10]: > 154 µM; MIC [11]: ≥ 154 µM; MIC [12]: ≥ 154 µM; MIC [13]: ≥ 154 µM; MIC [14]: ≥ 154 µM; MIC [15]: ≥ 154 µM; MIC [16]: ≥ 154 µM |
